Legend:
Falcilysin = target: T1, Falcilysin (Plasmodium falciparum (isolate 3D7), UniProt Q76NL8); assay: Inhibition of Plasmodium falciparum FLN
T1 sequence (Q76NL8 whole entry): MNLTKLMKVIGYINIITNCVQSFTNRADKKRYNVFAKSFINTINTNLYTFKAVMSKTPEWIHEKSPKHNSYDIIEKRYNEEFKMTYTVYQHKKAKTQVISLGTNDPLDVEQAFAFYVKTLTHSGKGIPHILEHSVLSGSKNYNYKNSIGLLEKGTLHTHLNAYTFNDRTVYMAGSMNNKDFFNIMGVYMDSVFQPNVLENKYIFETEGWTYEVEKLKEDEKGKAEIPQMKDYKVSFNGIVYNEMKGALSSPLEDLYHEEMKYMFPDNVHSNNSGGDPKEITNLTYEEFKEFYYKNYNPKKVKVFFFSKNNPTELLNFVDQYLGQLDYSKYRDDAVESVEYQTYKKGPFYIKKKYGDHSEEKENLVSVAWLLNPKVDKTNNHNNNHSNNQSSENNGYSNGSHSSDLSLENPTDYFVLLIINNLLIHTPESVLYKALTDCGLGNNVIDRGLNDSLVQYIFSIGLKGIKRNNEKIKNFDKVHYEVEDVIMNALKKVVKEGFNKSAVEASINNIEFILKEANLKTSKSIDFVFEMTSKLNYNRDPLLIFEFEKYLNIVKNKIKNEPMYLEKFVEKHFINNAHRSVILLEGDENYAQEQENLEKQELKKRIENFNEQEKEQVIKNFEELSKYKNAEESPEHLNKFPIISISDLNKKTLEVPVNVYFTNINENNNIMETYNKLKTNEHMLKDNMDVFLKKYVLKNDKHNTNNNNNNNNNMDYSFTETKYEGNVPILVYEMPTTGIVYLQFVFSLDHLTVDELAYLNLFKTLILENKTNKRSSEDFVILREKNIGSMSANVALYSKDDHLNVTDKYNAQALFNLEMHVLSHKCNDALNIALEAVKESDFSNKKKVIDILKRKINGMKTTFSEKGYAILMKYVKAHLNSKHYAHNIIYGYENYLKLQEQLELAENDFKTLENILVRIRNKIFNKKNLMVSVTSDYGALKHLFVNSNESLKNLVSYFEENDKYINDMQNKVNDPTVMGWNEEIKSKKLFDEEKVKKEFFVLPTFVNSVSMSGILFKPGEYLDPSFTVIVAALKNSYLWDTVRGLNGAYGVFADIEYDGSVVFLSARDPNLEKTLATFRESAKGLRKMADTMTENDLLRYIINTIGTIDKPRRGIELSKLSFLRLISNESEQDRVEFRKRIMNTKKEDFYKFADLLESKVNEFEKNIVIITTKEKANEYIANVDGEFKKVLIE

Plasmodium falciparum = assay: Parasiticidal activity against Plasmodium falciparum 3D7; assay type: functional, organism-based

SMILES | Ki (Falcilysin) [µM] | EC50 (Plasmodium falciparum) [µM]
COC(=O)C1CN(S(=O)(=O)c2ccc(-c3ccccc3)cc2)CCN1S(=O)(=O)c1ccc(/C=C/c2ccccc2)cc1 (centres undefined) | 0.6 | 0.8
CNC(=O)C1CN(S(=O)(=O)c2ccc(-c3ccccc3)cc2)CCN1S(=O)(=O)c1cccc(/C=C/c2ccccc2)c1 (centres undefined) | 1 | 5
CNC(=O)C1CN(S(=O)(=O)c2cccc(Br)c2)CCN1S(=O)(=O)c1ccc(-c2ccccc2)cc1 (centres undefined) | 1.4 | 4.7
O=C(NO)C1CN(C(=O)c2ccc3ccccc3c2)CCN1S(=O)(=O)c1ccc(Br)cc1 (centres undefined) | 3.5 | 7
CNC(=O)C1CN(S(=O)(=O)c2ccc(-c3cccnc3OC)cc2)CCN1S(=O)(=O)c1ccc(-c2ccccc2)cc1 (centres undefined) | 4 | 1.4
CNC(=O)C1CN(S(=O)(=O)c2ccc(-c3ccccc3)cc2)CCN1S(=O)(=O)c1cccc(CCc2ccccc2)c1 (centres undefined) | 2.5 | 2.1
O=C(NO)C1CN(S(=O)(=O)c2ccc(/C=C/c3ccccc3)cc2)CCN1S(=O)(=O)c1ccc(-c2ccccc2)cc1 (centres undefined) | 1.1 | 16
COC(=O)C1CN(S(=O)(=O)c2ccc(-c3ccccc3)cc2)CCN1S(=O)(=O)c1ccc(-c2ccccc2)cc1 (centres undefined) | 2.5 | 2.1
CNC(=O)C1CN(S(=O)(=O)c2ccc(-c3ccccc3)cc2)CCN1S(=O)(=O)c1cccc(-c2ccc(C(=O)c3ccccc3)cc2)c1 (centres undefined) | 1.7 | 0.9
O=C(NO)C1CN(S(=O)(=O)c2ccc(-c3ccccc3)cc2)CCN1S(=O)(=O)c1ccc(-c2ccccc2)cc1 (centres undefined) | 0.22 | 7
COC(=O)C1CN(Cc2ccc(-c3ccccc3)cc2)CCN1S(=O)(=O)c1ccc(Br)cc1 (centres undefined) | 4 | 1.4
O=C(NO)C1CN(S(=O)(=O)c2ccc(Cc3ccccc3)cc2)CCN1S(=O)(=O)c1ccc(Br)cc1 (centres undefined) | > 25 | > 25
O=C(NO)C1CN(C(=O)c2ccc(-c3ccccc3)cc2)CCN1S(=O)(=O)c1ccc(Br)cc1 (centres undefined) | 3 | 2.6
O=C(NO)C1CN(C(=O)c2ccc(-c3ccccc3)cc2)CCN1S(=O)(=O)c1ccc(-c2ccsc2)cc1 (centres undefined) | 11 | 6
O=C(NO)C1CN(C(=O)c2ccc(-c3ccccc3)cc2)CCN1S(=O)(=O)c1ccc(-c2ccccc2)cc1 (centres undefined) | 10 | > 25
CNC(=O)C1CN(S(=O)(=O)c2ccc(-c3ccccc3)cc2)CCN1S(=O)(=O)c1cccc(-c2cccnc2OC)c1 (centres undefined) | 4 | 6
O=C(NO)C1CN(C(=O)c2cccc3ccccc23)CCN1S(=O)(=O)c1ccc(Br)cc1 (centres undefined) | 9 | 4
C#Cc1ccc(S(=O)(=O)N2CCN(C(=O)c3ccc(C(=O)c4ccccc4)cc3)CC2C(=O)NO)cc1 (centres undefined) | > 25 | 6
O=C(NO)C1CN(C(=O)c2ccc(-c3ccccc3)cc2)CCN1S(=O)(=O)c1ccc(I)cc1 (centres undefined) | 4 | 3
O=C(NO)C1CN(S(=O)(=O)c2ccc(-c3ccccc3)cc2)CCN1S(=O)(=O)c1cccc(Br)c1 (centres undefined) | 1.4 | 1.6
CNC(=O)C1CN(S(=O)(=O)c2ccc(I)cc2)CCN1S(=O)(=O)c1ccc(-c2ccccc2)cc1 (centres undefined) | 2.6 | 9
O=C(NO)C1CN(S(=O)(=O)c2ccc(-c3ccccc3)cc2)CCN1S(=O)(=O)c1cccc(-c2ccccc2)c1 (centres undefined) | 0.9 | 7
O=C(NO)C1CN(C(=O)c2ccc(I)cc2)CCN1S(=O)(=O)c1ccc(Br)cc1 (centres undefined) | > 25 | > 25
O=C(NO)C1CN(Cc2ccc(-c3ccccc3)cc2)CCN1S(=O)(=O)c1ccc(I)cc1 (centres undefined) | 4.9 | 5
C#Cc1ccc(S(=O)(=O)N2CCN(C(=O)c3ccc(I)cc3)CC2C(=O)NO)cc1 (centres undefined) | > 25 | > 25
C#Cc1ccc(S(=O)(=O)N2CCNCC2C(=O)NO)cc1 (centres undefined) | > 25 | > 25
O=C(NO)C1CN(Cc2ccc(-c3ccccc3)cc2)CCN1S(=O)(=O)c1ccc(Br)cc1 (centres undefined) | 5 | 10

Source: ChEMBL document CHEMBL4680295, “Structure guided development of potent piperazine-derived hydroxamic acid inhibitors targeting falcilysin” (Bioorg Med Chem Lett, 2021)
